# From PubChem BioAssay (NCI)
#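 A five-concentration, 48-hour dose response in 96-well plates underlies each endpoint, interpolated linearly between surrounding concentrations. GI50 = concentration required for 50% inhibition of growth. At the TGI there is no net growth.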
# Key:
# Test in all cases: DTP human tumour cell line panel, 48 h
# SR leukemia = system: SR leukemia
# LOX IMVI melanoma = system: LOX IMVI melanoma
# RXF 393 renal = system: RXF 393 renal
# SK-MEL-2 melanoma = system: SK-MEL-2 melanoma
# CCRF-CEM leukemia = system: CCRF-CEM leukemia
# SNB-19 CNS = system: SNB-19 CNS
# SW-620 colon = system: SW-620 colon
# NCI-H522 lung = system: NCI-H522 lung
# PC-3 prostate = system: PC-3 prostate
# COLO 205 colon = system: COLO 205 colon
Structure (SMILES),TGI (SR leukemia),TGI (LOX IMVI melanoma),TGI (RXF 393 renal),TGI (SK-MEL-2 melanoma),TGI (CCRF-CEM leukemia),TGI (SNB-19 CNS),TGI (SW-620 colon),TGI (NCI-H522 lung),GI50 (LOX IMVI melanoma),GI50 (SK-MEL-2 melanoma),GI50 (CCRF-CEM leukemia),GI50 (SNB-19 CNS),GI50 (SW-620 colon),GI50 (NCI-H522 lung),GI50 (PC-3 prostate),TGI (PC-3 prostate),GI50 (COLO 205 colon),TGI (COLO 205 colon),GI50 (RXF 393 renal),GI50 (SR leukemia)
CNC(=O)NCCN1N=C(C)/C(=C\c2ccccc2)CC1=O,> 100 µM,> 100 µM,> 100 µM,> 100 µM,> 100 µM,> 100 µM,> 100 µM,> 100 µM,–,–,–,–,–,–,–,–,–,–,–,–
CCOP(=O)(OCC)C(NC(c1ccccc1)c1ccccc1)c1ccc(C(C)C)cc1 (configuration not stated),–,16 µM,–,72.7 µM,25.5 µM,> 100 µM,20.3 µM,29.6 µM,4.33 µM,19.2 µM,3.39 µM,26.6 µM,4.08 µM,6.98 µM,2.9 µM,13.3 µM,–,–,–,–
COc1cc(NCCC2CCCCN2)c2ncccc2c1OC (configuration not stated),–,5.49 µM,38.5 µM,9.07 µM,–,42.3 µM,21.2 µM,9.05 µM,1.95 µM,3.13 µM,–,18.7 µM,5.5 µM,2.41 µM,18.1 µM,72 µM,10 µM,24.2 µM,22.8 µM,–
COc1ccc(NC(=O)c2cccc(C3CCc4c(cc(OC)c(OC)c4OC)O3)c2)cc1 (configuration not stated),> 100 µM,> 100 µM,–,8.79 µM,> 100 µM,> 100 µM,> 100 µM,7.37 µM,3.94 µM,2.95 µM,1.6 µM,4.16 µM,4.45 µM,2.29 µM,1.57 µM,> 100 µM,2.39 µM,6.67 µM,–,0.419 µM
CC[P+]1(c2ccccc2)CCCCC1,> 100 µM,> 100 µM,> 100 µM,> 100 µM,> 100 µM,> 100 µM,> 100 µM,–,–,–,–,–,–,–,–,–,–,> 100 µM,–,–
C=CCC1C(=O)CC2(C)C(CC=C)C(=O)CC12C (configuration not stated),> 100 µM,> 100 µM,–,> 100 µM,> 100 µM,> 100 µM,> 100 µM,> 100 µM,–,–,–,–,–,–,–,–,–,> 100 µM,–,–
O=C1CCc2ccc(O)c(c2)Oc2ccc(cc2)[C@@H]2O[C@@H]2CO1,> 100 µM,> 100 µM,–,> 100 µM,> 100 µM,> 100 µM,> 100 µM,–,–,–,–,–,–,–,–,–,–,> 100 µM,–,–
CCN(CC)CCCNc1cc(OC)c(OC)c2cccnc12,> 100 µM,34.4 µM,34.3 µM,42.8 µM,–,45 µM,20.2 µM,10.5 µM,2.22 µM,14.5 µM,–,13.1 µM,1.8 µM,2.38 µM,16.1 µM,47.2 µM,10 µM,23.2 µM,19.1 µM,1.22 µM
O=C(COc1cccc(/C=C2\Oc3ccc4ccccc4c3C2=O)c1)c1ccc([N+](=O)[O-])cc1,> 100 µM,20.5 µM,25.2 µM,> 100 µM,17.4 µM,> 100 µM,27 µM,29.3 µM,7.5 µM,> 100 µM,3.96 µM,34.1 µM,14 µM,11.2 µM,–,–,21.8 µM,> 100 µM,10.6 µM,0.305 µM
N#CC1=C(c2ccccc2)OC2(N)OC(c3ccccc3)=C(C#N)C12C#N (configuration not stated),–,> 100 µM,> 100 µM,> 100 µM,> 100 µM,> 100 µM,> 100 µM,–,–,–,–,–,–,–,–,–,–,> 100 µM,–,–
CC1(C)CC[C@]2(CO)CC[C@]3(C)C(=CC[C@@H]4[C@@]5(C)CCNCC(C)(C)[C@@H]5CC[C@]43C)[C@@H]2C1,–,5.52 µM,4.83 µM,5.57 µM,23.1 µM,26.8 µM,4.41 µM,7.09 µM,2.45 µM,2.32 µM,5.47 µM,12.8 µM,1.97 µM,2.62 µM,4.32 µM,18.3 µM,1.9 µM,4 µM,1.95 µM,–
COc1ccc(C(Nc2ccccn2)c2cc(C(C)(C)C)cc(C(C)(C)C)c2O)cc1 (configuration not stated),> 100 µM,35.8 µM,38.6 µM,43.2 µM,–,> 100 µM,> 100 µM,17.7 µM,–,–,–,–,–,–,–,> 100 µM,–,50 µM,–,–
CC(=N\O)/C(C)=N/O.CC(=N\O)/C(C)=N/O.[Fe].[NH2-].c1c[nH]cn1,> 100 µM,13.2 µM,> 100 µM,> 100 µM,–,> 100 µM,> 100 µM,> 100 µM,3.17 µM,> 100 µM,–,> 100 µM,> 100 µM,> 100 µM,> 100 µM,> 100 µM,> 100 µM,> 100 µM,> 100 µM,> 100 µM
CC[Si](CC)(CC)OC1[C@@H](O[Si](CC)(CC)CC)[C@@H](CNC(=O)NC)O[C@H]1n1cnc2c(NC(=O)Nc3ccccc3)ncnc21 (some centres not stated),5.2 µM,7.85 µM,4.67 µM,5.9 µM,9.18 µM,> 100 µM,> 100 µM,78.5 µM,2.61 µM,2.49 µM,3.02 µM,5.28 µM,4.1 µM,3.83 µM,–,–,2.09 µM,3.62 µM,2.36 µM,2.36 µM
CN(C)CCNC(=O)c1cccc2c1nc(-c1ccncc1)c1ccccc12,–,3.66 µM,7.55 µM,19.1 µM,> 100 µM,27.2 µM,19.1 µM,–,–,–,–,–,–,–,–,–,–,9.66 µM,–,–
O=C(OCc1ccccc1)n1cccc1,> 100 µM,> 100 µM,> 100 µM,> 100 µM,> 100 µM,> 100 µM,> 100 µM,> 100 µM,–,–,–,–,–,–,–,–,–,> 100 µM,–,–
CCOC(=O)CCn1cnc(N)n1,> 100 µM,> 100 µM,> 100 µM,> 100 µM,> 100 µM,> 100 µM,> 100 µM,> 100 µM,–,–,–,–,–,–,–,–,–,> 100 µM,–,–
Cc1ccc(NC(=O)CCC(=O)C2Cc3ccccc3C2=O)cc1C (configuration not stated),> 100 µM,> 100 µM,> 100 µM,> 100 µM,> 100 µM,> 100 µM,> 100 µM,> 100 µM,–,–,–,–,–,–,–,–,–,> 100 µM,–,–
Oc1cc(O)c2c(c1)OC(c1ccc(O)c(O)c1)C(O)C2c1c(O)cc(O)c2c1OC(c1ccc(O)c(O)c1)C(O)C2 (configuration not stated),–,> 100 µM,> 100 µM,> 100 µM,–,> 100 µM,> 100 µM,> 100 µM,–,–,–,–,–,–,–,> 100 µM,–,> 100 µM,–,–
